Measured values: patent US20170349540A1, “HISTONE DEACETYLASE INHIBITORS” (The General Hospital Corporation, priority 2014, published 2017)

Legend:
HDAC = assay: In vivo PET imaging: blocking of whole brain uptake of the radiolabeled compound of Example 3; set-up: species or system rat; conditions: self-blocking, 5 min pretreatment with 1.0 μg-2.0 mg/kg unlabeled compound; radiotracer of Example 3
Description: Male Sprague-Dawley rats were utilized in pairs, anesthetized with inhalational isoflurane (Forane) at 3% in a carrier of 1.5-2 L/min medical oxygen and maintained at 2% isoflurane for the duration of the scan. The rats were arranged head-to-head in a Triumph Trimodality PET/CT/SPECT scanner (Gamma Medica, Northridge, Calif.). Rats were injected standard references or vehicle via a lateral tail vein catheterization at the start of Positron Emission Tomography (PET) acquisition. Dynamic PET acquisition lasted for 60 min and was followed by computed tomography (CT) for anatomic co-registration. PET data were reconstructed using a 3D-MLEM method resulting in a full width at half-maximum resolution of 1 mm. Reconstructed images were exported from the scanner in DICOM format along with an anatomic CT for rodent studies. These files were imported to PMOD (PMOD Technologies, Ltd.) and manually coregistered using six degrees of freedom.
Volumes of interest (VOIs) were drawn manually as spheres in brain regions guided by high resolution CT structural images and summed PET data, with a radius no less than 1 mm to minimize partial volume effects. Time-activity curves (TACs) were exported in terms of decay corrected activity per unit volume at specified time points with gradually increasing intervals. The TACs were expressed as percent injected dose per unit volume for analysis.
Summed PET images following injection with the ^11C radiolabeled (E)-3-(4-((((1r,3R,5S)-adamantan-1-ylmethyl)(methyl)amino)methyl)phenyl)-N-hydroxyacrylamide (Example 3) at baseline or after 5 minutes pretreatment with 0.5 or 2.0 mg/kg unlabeled (E)-3-(4-((((1 r,3R,5 S)-adamantan-1-ylmethyl) (methyl)amino)methyl)phenyl)-N-hydroxyacrylamide illustrate brain uptake and self-blocking, as shown in FIG. 1A. Whole-brain tracer uptake levels, normalized to uptake at 10 min, were altered by 10-40% in self-blocking experiments with 5 min pretreatment with 1.0 μg-2.0 mg/kg unlabeled (E)-3-(4-((((1r,3R,5S)-adamantan-1-ylmethyl) (methyl)amino)methyl)phenyl)-N-hydroxyacrylamide, as shown in FIGS. 1B and 1C. This quantification provides a means to measure occupancy of HDAC targets on the basis of blocked binding of the radiolabeled compound of Example 3.
Whole brain uptake of the radiotracer of Example 3 was measured 4 h after acute systemic treatment.

HDAC1 = molecular target: T1, HDAC1 (Homo sapiens, UniProt Q13547); assay: HDAC inhibition assay (Caliper EZ reader, FAM-labeled peptide substrate); type: biochemical; conditions: recombinant human HDAC, 60 min at room temperature, 2 μM substrate
T1 construct: purchased BPS Bioscience
Description: (§1) All recombinant human HDACs were purchased from BPS Bioscience. The substrates, Broad Substrate A and Broad Substrate B (see International App. No. WO 2013/067391), were synthesized in-house. All other reagents were purchased from Sigma-Aldrich. […] Reactions were terminated by the addition of 1.5 μM of the known pan-HDAC inhibitor LBH-589 (panobinostat). […] The reactions were performed in duplicate for each sample.

HDAC2 = molecular target: T2, HDAC2 (Homo sapiens, UniProt Q92769); assay: as above; type: biochemical; conditions: recombinant human HDAC, 60 min at room temperature, 2 μM substrate
T2 construct: purchased BPS Bioscience
Description: as §1

HDAC3 = molecular target: T3, HDAC3 (Homo sapiens, UniProt O15379); assay: as above; type: biochemical; conditions: recombinant human HDAC, 60 min at room temperature, 2 μM substrate
T3 construct: purchased BPS Bioscience
Description: as §1

HDAC4 = molecular target: T4, HDAC4 (Homo sapiens, UniProt P56524); assay: as above; type: biochemical; conditions: recombinant human HDAC, 60 min at room temperature, 2 μM substrate
T4 construct: purchased BPS Bioscience
Description: as §1

HDAC5 = molecular target: T5, HDAC5 (Homo sapiens, UniProt Q9UQL6); assay: as above; type: biochemical; conditions: recombinant human HDAC, 60 min at room temperature, 2 μM substrate
T5 construct: purchased BPS Bioscience
Description: as §1

HDAC6 = molecular target: T6, HDAC6 (Homo sapiens, UniProt Q9UBN7); assay: as above; type: biochemical; conditions: recombinant human HDAC, 60 min at room temperature, 2 μM substrate
T6 construct: purchased BPS Bioscience
T6 sequence (Q9UBN7 1-1215): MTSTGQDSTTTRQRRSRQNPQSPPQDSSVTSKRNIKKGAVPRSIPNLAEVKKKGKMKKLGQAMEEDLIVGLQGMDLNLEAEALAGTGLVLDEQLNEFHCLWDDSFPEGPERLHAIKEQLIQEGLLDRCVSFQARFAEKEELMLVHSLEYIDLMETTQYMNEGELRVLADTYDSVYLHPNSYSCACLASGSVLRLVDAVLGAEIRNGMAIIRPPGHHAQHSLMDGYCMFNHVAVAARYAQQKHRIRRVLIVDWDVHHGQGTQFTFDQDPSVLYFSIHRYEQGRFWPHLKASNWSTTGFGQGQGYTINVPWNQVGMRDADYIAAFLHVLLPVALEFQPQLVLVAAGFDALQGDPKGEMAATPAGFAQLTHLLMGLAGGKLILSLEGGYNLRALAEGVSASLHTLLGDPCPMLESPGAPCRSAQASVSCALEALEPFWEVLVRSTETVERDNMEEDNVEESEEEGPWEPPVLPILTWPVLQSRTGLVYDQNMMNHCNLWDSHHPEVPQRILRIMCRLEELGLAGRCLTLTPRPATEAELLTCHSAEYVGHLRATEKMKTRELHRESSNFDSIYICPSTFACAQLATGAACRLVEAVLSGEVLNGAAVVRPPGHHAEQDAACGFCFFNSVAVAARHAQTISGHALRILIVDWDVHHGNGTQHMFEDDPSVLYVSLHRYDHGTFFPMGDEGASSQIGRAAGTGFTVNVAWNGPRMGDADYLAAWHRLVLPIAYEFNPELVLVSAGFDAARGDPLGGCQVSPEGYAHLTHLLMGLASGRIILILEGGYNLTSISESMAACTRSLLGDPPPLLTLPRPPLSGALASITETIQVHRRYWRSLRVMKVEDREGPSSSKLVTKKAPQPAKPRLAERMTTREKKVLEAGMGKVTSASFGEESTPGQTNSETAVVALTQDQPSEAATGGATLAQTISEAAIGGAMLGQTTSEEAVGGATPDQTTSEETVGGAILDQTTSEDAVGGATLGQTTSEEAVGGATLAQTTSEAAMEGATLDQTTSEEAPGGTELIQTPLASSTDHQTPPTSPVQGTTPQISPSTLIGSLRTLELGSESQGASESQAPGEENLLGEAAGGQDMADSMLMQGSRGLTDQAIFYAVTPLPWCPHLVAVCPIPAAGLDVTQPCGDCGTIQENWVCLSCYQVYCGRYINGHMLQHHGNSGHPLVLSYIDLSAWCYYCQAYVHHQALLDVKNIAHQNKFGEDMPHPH
Description: as §1

HDAC7 = molecular target: T7, HDAC7 (Homo sapiens, UniProt Q8WUI4); assay: as above; type: biochemical; conditions: recombinant human HDAC, 60 min at room temperature, 2 μM substrate
T7 construct: purchased BPS Bioscience
T7 sequence (Q8WUI4 1-952): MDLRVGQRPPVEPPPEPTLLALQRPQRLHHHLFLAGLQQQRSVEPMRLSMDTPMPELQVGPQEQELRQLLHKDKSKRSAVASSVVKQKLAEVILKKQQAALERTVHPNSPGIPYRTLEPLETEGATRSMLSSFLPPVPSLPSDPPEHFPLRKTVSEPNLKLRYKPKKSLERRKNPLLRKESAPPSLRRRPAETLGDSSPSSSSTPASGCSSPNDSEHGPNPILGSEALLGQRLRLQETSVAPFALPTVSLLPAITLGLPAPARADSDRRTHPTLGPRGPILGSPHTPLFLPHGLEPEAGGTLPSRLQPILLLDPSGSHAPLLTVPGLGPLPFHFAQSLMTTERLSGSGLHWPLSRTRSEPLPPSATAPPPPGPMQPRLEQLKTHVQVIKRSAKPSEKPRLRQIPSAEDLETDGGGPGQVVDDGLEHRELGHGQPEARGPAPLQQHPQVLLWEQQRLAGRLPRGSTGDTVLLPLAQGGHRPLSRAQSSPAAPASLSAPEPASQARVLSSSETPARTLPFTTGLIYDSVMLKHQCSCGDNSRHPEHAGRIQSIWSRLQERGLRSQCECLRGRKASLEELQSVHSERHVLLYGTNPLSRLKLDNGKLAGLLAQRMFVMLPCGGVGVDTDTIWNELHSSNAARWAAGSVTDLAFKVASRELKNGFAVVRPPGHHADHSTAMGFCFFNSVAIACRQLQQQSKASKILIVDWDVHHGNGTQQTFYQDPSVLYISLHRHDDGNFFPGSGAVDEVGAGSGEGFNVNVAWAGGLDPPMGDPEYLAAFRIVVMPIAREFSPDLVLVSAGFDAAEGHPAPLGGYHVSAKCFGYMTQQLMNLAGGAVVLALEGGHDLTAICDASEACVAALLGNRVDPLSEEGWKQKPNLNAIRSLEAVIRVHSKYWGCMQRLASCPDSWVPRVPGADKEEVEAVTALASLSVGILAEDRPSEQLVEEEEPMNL
Description: as §1

HDAC8 = molecular target: T8, HDAC8 (Homo sapiens, UniProt Q9BY41); assay: as above; type: biochemical; conditions: recombinant human HDAC, 60 min at room temperature, 2 μM substrate
T8 construct: purchased BPS Bioscience
T8 sequence (Q9BY41 1-377): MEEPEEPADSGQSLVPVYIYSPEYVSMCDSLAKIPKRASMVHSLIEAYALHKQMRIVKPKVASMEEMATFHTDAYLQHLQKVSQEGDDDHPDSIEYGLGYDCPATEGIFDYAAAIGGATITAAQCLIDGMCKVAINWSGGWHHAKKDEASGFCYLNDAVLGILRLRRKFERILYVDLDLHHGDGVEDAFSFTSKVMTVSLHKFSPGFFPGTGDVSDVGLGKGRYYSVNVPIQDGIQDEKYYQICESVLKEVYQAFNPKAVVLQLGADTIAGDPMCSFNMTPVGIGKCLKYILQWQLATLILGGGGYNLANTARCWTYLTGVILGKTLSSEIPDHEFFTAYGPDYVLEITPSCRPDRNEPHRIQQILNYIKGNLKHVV
Description: as §1

HDAC9 = molecular target: T9, HDAC9 (Homo sapiens, UniProt Q9UKV0); assay: as above; type: biochemical; conditions: recombinant human HDAC, 60 min at room temperature, 2 μM substrate
T9 construct: purchased BPS Bioscience
Description: as §1

T2 sequence (Q92769 whole entry): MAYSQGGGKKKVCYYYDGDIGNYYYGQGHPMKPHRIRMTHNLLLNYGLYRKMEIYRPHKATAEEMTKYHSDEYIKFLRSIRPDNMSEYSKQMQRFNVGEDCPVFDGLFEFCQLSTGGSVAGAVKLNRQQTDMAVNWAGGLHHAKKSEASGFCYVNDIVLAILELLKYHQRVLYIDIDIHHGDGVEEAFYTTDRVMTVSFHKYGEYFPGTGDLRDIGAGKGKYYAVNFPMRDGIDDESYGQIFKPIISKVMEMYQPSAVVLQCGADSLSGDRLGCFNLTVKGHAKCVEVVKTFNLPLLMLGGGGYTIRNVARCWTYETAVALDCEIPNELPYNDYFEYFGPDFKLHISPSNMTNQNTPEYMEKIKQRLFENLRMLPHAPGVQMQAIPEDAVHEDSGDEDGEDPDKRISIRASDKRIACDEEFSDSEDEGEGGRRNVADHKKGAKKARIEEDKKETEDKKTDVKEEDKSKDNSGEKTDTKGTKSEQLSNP
T5 sequence (Q9UQL6 whole entry): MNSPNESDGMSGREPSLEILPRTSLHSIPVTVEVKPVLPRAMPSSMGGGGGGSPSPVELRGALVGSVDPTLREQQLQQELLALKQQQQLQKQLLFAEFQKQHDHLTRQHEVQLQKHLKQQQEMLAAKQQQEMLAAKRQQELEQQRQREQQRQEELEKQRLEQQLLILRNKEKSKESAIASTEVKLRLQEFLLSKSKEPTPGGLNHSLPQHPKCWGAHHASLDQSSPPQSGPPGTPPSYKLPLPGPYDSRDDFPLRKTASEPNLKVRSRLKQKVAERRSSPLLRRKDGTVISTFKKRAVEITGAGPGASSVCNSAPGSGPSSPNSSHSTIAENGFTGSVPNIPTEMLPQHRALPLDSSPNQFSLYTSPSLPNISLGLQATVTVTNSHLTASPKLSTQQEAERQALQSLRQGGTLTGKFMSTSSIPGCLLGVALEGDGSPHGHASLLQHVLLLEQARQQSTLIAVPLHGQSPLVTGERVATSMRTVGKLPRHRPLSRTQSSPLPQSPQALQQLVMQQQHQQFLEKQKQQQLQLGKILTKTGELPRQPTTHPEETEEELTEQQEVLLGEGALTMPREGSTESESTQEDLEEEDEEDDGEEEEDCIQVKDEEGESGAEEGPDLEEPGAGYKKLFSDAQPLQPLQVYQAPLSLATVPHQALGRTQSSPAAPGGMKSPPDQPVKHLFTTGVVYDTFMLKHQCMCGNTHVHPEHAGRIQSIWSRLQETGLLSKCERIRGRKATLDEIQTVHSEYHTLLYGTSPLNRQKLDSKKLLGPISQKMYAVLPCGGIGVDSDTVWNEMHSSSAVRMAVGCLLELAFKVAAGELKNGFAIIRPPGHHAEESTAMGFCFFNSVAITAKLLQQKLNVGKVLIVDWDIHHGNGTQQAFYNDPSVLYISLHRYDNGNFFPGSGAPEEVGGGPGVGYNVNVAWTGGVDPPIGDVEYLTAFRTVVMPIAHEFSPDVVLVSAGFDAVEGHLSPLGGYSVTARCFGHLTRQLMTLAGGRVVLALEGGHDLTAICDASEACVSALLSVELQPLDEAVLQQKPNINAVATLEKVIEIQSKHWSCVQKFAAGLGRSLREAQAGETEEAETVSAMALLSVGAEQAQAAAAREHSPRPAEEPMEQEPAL
T3 sequence (O15379 whole entry): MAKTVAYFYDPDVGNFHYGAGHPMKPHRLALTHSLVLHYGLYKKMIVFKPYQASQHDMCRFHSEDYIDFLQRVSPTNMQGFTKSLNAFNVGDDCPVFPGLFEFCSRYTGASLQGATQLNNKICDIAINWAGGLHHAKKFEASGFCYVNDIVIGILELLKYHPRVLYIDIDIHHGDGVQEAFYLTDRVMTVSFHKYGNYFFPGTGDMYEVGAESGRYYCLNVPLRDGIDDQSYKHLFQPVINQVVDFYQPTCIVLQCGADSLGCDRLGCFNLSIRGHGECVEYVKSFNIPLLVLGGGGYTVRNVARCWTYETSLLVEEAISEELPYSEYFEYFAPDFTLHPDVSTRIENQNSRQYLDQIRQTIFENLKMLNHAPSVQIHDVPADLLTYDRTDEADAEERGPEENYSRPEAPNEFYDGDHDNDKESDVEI
T3 sequence (Q9Y618 395-489 partner limits assumed): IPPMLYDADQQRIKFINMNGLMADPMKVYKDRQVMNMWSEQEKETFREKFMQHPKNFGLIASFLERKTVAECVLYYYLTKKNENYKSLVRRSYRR
T1 sequence (Q13547 whole entry): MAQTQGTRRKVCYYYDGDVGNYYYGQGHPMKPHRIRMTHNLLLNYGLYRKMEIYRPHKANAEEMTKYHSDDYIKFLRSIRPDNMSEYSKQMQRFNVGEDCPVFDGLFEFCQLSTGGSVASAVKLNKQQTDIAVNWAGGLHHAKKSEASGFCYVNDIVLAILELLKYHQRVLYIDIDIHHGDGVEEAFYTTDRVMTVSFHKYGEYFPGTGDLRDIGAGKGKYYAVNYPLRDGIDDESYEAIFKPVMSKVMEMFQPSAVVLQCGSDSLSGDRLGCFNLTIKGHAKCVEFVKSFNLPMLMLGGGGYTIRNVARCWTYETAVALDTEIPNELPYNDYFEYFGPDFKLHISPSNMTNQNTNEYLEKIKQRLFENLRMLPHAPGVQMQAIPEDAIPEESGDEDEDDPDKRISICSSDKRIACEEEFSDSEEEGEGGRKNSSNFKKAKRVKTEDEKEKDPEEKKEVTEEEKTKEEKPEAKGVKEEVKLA
T4 sequence (P56524 whole entry): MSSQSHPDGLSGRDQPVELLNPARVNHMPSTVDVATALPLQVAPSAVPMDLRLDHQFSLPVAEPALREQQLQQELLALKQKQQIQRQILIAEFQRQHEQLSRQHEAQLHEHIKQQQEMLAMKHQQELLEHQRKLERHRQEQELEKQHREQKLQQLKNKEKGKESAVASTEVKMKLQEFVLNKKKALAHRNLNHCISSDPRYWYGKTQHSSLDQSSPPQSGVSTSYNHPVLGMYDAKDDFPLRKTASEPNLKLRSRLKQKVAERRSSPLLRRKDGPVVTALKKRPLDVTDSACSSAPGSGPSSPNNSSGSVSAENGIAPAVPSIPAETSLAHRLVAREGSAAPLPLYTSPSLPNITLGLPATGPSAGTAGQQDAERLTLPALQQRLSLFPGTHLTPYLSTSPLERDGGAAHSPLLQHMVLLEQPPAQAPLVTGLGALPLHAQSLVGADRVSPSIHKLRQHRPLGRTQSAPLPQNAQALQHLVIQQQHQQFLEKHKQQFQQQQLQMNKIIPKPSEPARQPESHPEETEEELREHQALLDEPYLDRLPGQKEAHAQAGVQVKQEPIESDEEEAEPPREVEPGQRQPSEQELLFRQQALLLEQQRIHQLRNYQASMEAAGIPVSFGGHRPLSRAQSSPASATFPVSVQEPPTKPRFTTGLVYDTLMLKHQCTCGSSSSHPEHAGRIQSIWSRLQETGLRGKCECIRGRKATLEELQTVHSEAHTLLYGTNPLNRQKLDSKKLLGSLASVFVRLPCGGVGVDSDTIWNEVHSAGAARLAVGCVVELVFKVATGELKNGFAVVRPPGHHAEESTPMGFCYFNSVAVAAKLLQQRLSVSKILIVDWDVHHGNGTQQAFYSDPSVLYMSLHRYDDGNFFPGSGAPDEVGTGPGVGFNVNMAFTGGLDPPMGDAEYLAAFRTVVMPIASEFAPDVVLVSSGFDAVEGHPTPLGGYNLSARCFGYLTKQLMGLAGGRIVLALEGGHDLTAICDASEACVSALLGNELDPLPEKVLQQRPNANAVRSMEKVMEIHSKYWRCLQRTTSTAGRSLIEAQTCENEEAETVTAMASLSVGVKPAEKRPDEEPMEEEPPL
T9 sequence (Q9UKV0 whole entry): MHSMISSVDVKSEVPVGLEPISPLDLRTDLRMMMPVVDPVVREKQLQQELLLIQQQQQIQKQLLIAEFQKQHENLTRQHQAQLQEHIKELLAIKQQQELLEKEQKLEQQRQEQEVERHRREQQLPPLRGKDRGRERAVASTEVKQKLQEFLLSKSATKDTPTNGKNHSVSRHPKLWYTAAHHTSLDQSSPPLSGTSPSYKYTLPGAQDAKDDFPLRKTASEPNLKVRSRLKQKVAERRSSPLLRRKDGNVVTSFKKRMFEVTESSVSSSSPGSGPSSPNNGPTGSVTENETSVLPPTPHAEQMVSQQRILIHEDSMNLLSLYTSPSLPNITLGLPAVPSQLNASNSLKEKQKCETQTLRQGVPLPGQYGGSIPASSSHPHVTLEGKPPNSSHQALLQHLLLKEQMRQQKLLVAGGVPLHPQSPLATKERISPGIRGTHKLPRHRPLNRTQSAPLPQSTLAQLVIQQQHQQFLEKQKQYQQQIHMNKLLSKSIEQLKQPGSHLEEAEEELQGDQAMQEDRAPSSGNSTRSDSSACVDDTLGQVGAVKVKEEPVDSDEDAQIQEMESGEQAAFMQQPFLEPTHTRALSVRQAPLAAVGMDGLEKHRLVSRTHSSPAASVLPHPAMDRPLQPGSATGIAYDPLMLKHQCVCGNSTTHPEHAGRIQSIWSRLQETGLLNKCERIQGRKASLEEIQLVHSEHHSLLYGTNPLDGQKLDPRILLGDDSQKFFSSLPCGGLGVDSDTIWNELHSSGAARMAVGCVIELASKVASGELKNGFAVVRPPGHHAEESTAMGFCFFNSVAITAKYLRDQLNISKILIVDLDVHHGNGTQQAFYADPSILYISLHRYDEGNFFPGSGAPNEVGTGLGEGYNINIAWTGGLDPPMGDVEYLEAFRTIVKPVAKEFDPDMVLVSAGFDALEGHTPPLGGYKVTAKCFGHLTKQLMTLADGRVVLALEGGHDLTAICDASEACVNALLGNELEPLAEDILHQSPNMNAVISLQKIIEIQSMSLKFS

IC50 (HDAC1) [µM]	IC50 (HDAC2) [µM]	IC50 (HDAC3) [µM]	IC50 (HDAC4) [µM]	IC50 (HDAC5) [µM]	IC50 (HDAC6) [µM]	IC50 (HDAC7) [µM]	IC50 (HDAC8) [µM]	IC50 (HDAC9) [µM]	SMILES	Whole-brain tracer uptake levels, normalized to uptake at 10 min, altered by (HDAC)
									CN(Cc1ccc(/C=C/C(=O)NO)cc1)CC12CC3CC(CC(C3)C1)C2 [Example 1, (E)-3-(4-((((1r,3R,5S)-adamantan-1-ylmethyl)(methyl)amino)methyl)phenyl)-N-hydroxyacrylamide]	10-40%
0.222	0.651	0.47	> 12	> 5	0.308	> 30	> 30	> 30	O=C(/C=C/c1ccc(CN(CCF)CC23CC4CC(CC(C4)C2)C3)cc1)NO	
0.0008	0.0064	0.0005	> 70	4.31	> 40	> 70	> 5	> 50	O=C(/C=C/c1ccc(CNCC23CC4CC(CC(C4)C2)C3)c(F)c1)NO	
0.149	0.602	0.216		> 40	> 10	> 40	> 40		CN(Cc1ccc(/C=C/C(=O)Nc2ccccc2N)cc1)CC12CC3CC(CC(C3)C1)C2 [drawing 61]	
